This note sets out measurements from patent US20190183910A1, “ENHANCING DNA REPAIR AND PREVENTING AGING AND ITS CONSEQUENCES IN REPRODUCTIVE AND OTHER CELLS” (NEW YORK MEDICAL COLLEGE, priority 2016, published 2019).

The subject of one test is DMC1. Description: qRT-PCR DNA DSB repair gene expression in mouse sperm lysates, DMC1. The class given is cell-based. Here is the method: (§1) Treatment was performed with genotoxic stress (1 mM H2O2), S1P (200 μM), and S1P with genotoxic stress and control in culture for one hour. Also, the use of an ATM inhibitor was utilized (10 μM) (KU-55593, Abcam) (Li et al., 2014). We assessed DNA damage, apoptosis, and chromatin integrity. We also studied the DNA DSB repair gene expression by qRT-PCR in sperm lysates.
Sperm pellets previously snap-frozen in PBS were thawed. RNA was extracted using the trizol method (Rio et al., 2010). The quality and quantity of the RNA were measured with NanoDrop 2000 from Thermo Scientific. RNA (2 μg) from each sample was taken for reverse transcription with dTVN and N9 primers and SuperScript III reverse transcriptase, all procured from Invitrogen. The resulting cDNA was used to perform real-time qPCR with SYBR Green on an Applied Biosystems 7900HT Real-Time PCR machine was used. To determine the relative expression of various DNA repair genes in mouse sperm, we used the ΔΔCt method, which makes use of the expression of housekeeping genes. GAPDH was used as housekeeping gene. Primers were procured from Integrated DNA technologies (IDT) (Table 3).

The subject of a further test is mouse sperm. Briefly: Neutral comet assay on mouse sperm. The class given is cell-based. The settings on record: for percent tail DNA, neutral comet: mouse sperm, n=9, mean±SEM. Here is the method: as §1
Slides were prepared 48 hours prior to experimentation by coating normal glass microscope slides with 500 μl normal melting point agar (NMPA, 0.5% w/v in PBS) solution and left to dry at room temperature for no less than 48 hours. Once samples were obtained, 10 μl of mouse sperm suspension was mixed with 90 μl of 0.5% low melting point agar (LMPA). Then, this 100 μl solution was added to the NMPA-coated slides. Coverslips were added and slides were placed on a metallic tray on ice and in the dark for 5 minutes. The cover slips were then removed and another layer of LMPA was added. Cover slips were subsequently replaced before the LMPA hardened. Slides were then kept in the dark on ice again for another 5 minutes. After ten minutes, the cover slips were removed and slides were placed in staining jars containing ice cold lysing solution (2.5 M NaCl, 100 mM EDTA, sodium N-laurylsacrosinate [SLS]. [1% w/v] and 10 mM Trizma base pH10, and 1% Triton-X-100 and 10% DMSO [immediately adding before use]) for 1 hour at 4° C. in a dark place.
After this lysis step, the slides were washed three times for 5 minutes with the cold electrophoresis buffer (0.089 M Tris base, 0.089 M boric acid and 2 mM EDTA [pH 8.3]), and then placed flatly in the electrophoresis tank face up for 30 minutes. This incubation period was used to achieve the unwinding of the DNA. Electrophoresis was then performed at 18 V for 60 minutes. After this, slides were washed twice in PBS for 5 minutes each. Before analysis could occur, the sperm within the slides needed to be fixed by two 10 minute washes in ethanol, and then air drying at room temperature. Ethidium bromide (50 μl at 10 μg/ml in water) was then added on the slide, and sealed with a cover slip. Slides were kept moist, wrapped in aluminum foil to prevent light exposure, and stored at 4° C. until analysis (Smart et al., 2008).
Slides from both alkaline and neutral comets were imaged by fluorescence microscopy using a Nikon OPTIPHOT microscope. ImageJ was used for comet assay analysis, which calculated tail length, tail moment, and % of DNA in the tail. […] The comets were “on scale” for the calculations to be correct (the brightest pixels of interest were below 255 on an 8-bit scale). […] To analyze the slides, an oval around the sperm head was drawn and calculated and then an oval around the sperm tail was drawn and calculated. […] It was calculated as the Pythagorean distance between two points. […]

Take `CCCCCCCCCCCCC/C=C/[C@@H](O)[C@@H](N)COP(=O)(O)O` [S1P, sphingosine 1 phosphate]: the “DMC1 expression (qRT-PCR)” value in the test on DMC1 (S1P alone, with ATM inhibitor, n=8, mean±SEM) stood at 0.027±0.014; in the test on DMC1 (S1P in the presence of genotoxic stress, n=9, mean±SEM) it was 0.029±0.04; in the test with DMC1 (S1P with genotoxic stress, with ATM inhibitor, n=8, mean±SEM), 0.0035±0.005. The “DNA damage, neutral comet” value with mouse sperm (S1P-treated mouse sperm with ATM inhibitor) was “no significant difference”. Besides, the “percent tail DNA, neutral comet” value in the test with mouse sperm (S1P alone, without ATM inhibitor) amounted to 18.5±0.59%; in the test with mouse sperm (S1P with H2O2, without ATM inhibitor), 18.8±0.73%.
